In ChEMBL document CHEMBL4177678, “Design, synthesis and in vitro anti-tuberculosis activity of benzo[6,7]cyclohepta[1,2-b]pyridine-1,2,3-triazole derivatives” (Bioorg Med Chem Lett, 2017):
Converted amounts (≈) assume the structure as drawn.

These molecules were tested on Mycobacterium tuberculosis (assay: Antitubercular activity against Mycobacterium tuberculosis H37Rv ATCC 27294 after 28 days by two-fold serial dilution method). Conditions: H37Rv ATCC 27294, 672 h.
Assay type: functional

Row | SMILES | MIC [µg/mL]
1 | CCCCCc1ccc(-c2cn(Cc3cc4c(nc3C)-c3cc(C)c(C)cc3CCC4)nn2)cc1 | > 25
2 | CC[C@@H](CO)NCCN[C@@H](CC)CO [ETHAMBUTOL] | 3.13 (≈ 15.3 µM)
3 | CCCCCCc1cn(Cc2cc3c(nc2C)-c2ccccc2CCC3)nn1 | 1.56 (≈ 4.17 µM)
4 | Cc1cc2c(cc1C)-c1nc(C)c(Cn3cc(-c4ccsc4)nn3)cc1CCC2 | 12.5 (≈ 31.2 µM)
5 | Cc1ccc(-c2cn(Cc3cc4c(nc3C)-c3cc(C)c(C)cc3CCC4)nn2)cc1 | 12.5 (≈ 30.6 µM)
6 | CCCCCCc1cn(Cc2cc3c(nc2C)-c2cc(C)c(C)cc2CCC3)nn1 | 12.5 (≈ 31 µM)
7 | Cc1cc2c(cc1C)-c1nc(C)c(Cn3cc(-c4ccccn4)nn3)cc1CCC2 | 25 (≈ 63.2 µM)
8 | NNC(=O)c1ccncc1 [ISONIAZID] | 0.1 (≈ 0.729 µM)
9 | CCCCCc1ccc(-c2cn(Cc3cc4c(nc3C)-c3ccccc3CCC4)nn2)cc1 | 12.5 (≈ 28.6 µM)
10 | CO[C@H]1/C=C/O[C@@]2(C)Oc3c(C)c(O)c4c(O)c(c(/C=N/N5CCN(C)CC5)c(O)c4c3C2=O)NC(=O)/C(C)=C\C=C\[C@H](C)[C@H](O)[C@@H](C)[C@@H](O)[C@@H](C)[C@H](OC(C)=O)[C@@H]1C [RIFAMPIN] | 0.2 (≈ 0.243 µM)
11 | Cc1cc2c(cc1C)-c1nc(C)c(Cn3cc(-c4ccccc4)nn3)cc1CCC2 | 25 (≈ 63.4 µM)
12 | COc1ccc2cc(-c3cn(Cc4cc5c(nc4C)-c4cc(C)c(C)cc4CCC5)nn3)ccc2c1 | 25 (≈ 52.7 µM)
13 | Cc1nc2c(cc1Cn1cc(-c3ccsc3)nn1)CCCc1ccccc1-2 | 12.5 (≈ 33.6 µM)
14 | COc1cccc(-c2cn(Cc3cc4c(nc3C)-c3cc(C)c(C)cc3CCC4)nn2)c1 | 25 (≈ 58.9 µM)
15 | COc1ccc2cc(-c3cn(Cc4cc5c(nc4C)-c4ccccc4CCC5)nn3)ccc2c1 | 25 (≈ 56 µM)
16 | Cc1nc2c(cc1Cn1cc(-c3cccnc3)nn1)CCCc1ccccc1-2 | 6.25 (≈ 17 µM)
17 | Cc1ccc(-c2cn(Cc3cc4c(nc3C)-c3ccccc3CCC4)nn2)cc1 | 12.5 (≈ 32.9 µM)
18 | Cc1nc2c(cc1Cn1cc(-c3cc4ccccc4c4ccccc34)nn1)CCCc1ccccc1-2 | > 25
19 | Cc1cc2c(cc1C)-c1nc(C)c(Cn3cc(-c4cc5ccccc5c5ccccc45)nn3)cc1CCC2 | 1.56 (≈ 3.15 µM)
20 | Cc1nc2c(cc1Cn1cc(-c3ccccn3)nn1)CCCc1ccccc1-2 | 12.5 (≈ 34 µM)
21 | COc1cccc(-c2cn(Cc3cc4c(nc3C)-c3ccccc3CCC4)nn2)c1 | > 25
22 | Cc1nc2c(cc1Cn1cc(-c3ccccc3)nn1)CCCc1ccccc1-2 | 25 (≈ 68.2 µM)
23 | Cc1cc2c(cc1C)-c1nc(C)c(Cn3cc(-c4cccnc4)nn3)cc1CCC2 | 6.25 (≈ 15.8 µM)

What follows are molecules tested on HEK-293T (assay: Cytotoxicity against human HEK293T cells assessed as reduction in cell viability at 50 ug/ml after 24 hrs by MTT assay). Conditions: not given.
Assay type: cell-based

Row | SMILES | Activity
24 | CCCCCCc1cn(Cc2cc3c(nc2C)-c2ccccc2CCC3)nn1 | Non-Toxic
25 | Cc1cc2c(cc1C)-c1nc(C)c(Cn3cc(-c4cc5ccccc5c5ccccc45)nn3)cc1CCC2 | Non-Toxic
